Laboratory results published in patent US20260285850A1, “SUBSTITUTED OXAZOLIDINONES AND IMIDAZOLINONES AS HERBICIDES” (FMC CORPORATION, priority 2023, published 2026).

Columns and labels:
Assay type in all cases: in vivo
[1] = system: rice (Oryza sativa); test: Test B flooded paddy test, visual plant response rating 0-100; conditions: 250 g ai/ha, Flood, applied to paddy water, evaluated after 13 days
How it was run: (§1)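 Visual scores versus untreated controls were recorded 13 days after treatment of greenhouse-held plants. At the 2-leaf stage, pots were flooded 3 cm above the soil surface and compounds added straight to the water.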

[2] = system: ducksalad (Heteranthera limosa); test: as above; conditions: 250 g ai/ha, Flood, applied to paddy water, evaluated after 13 days
How it was run: as §1

[3] = system: barnyardgrass (Echinochloa crusgalli); test: as above; conditions: 250 g ai/ha, Flood, applied to paddy water, evaluated after 13 days
How it was run: as §1

[4] = system: sedge, umbrella (small-flower umbrella sedge, Cyperus difformis); test: as above; conditions: 250 g ai/ha, Flood, applied to paddy water, evaluated after 13 days
How it was run: as §1

[5] = system: corn (Zea mays); test: Test A postemergence application, visual injury rating 0-100
How it was run: (§2)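 Compounds formulated in a non-phytotoxic solvent with surfactant are sprayed onto soil of freshly planted loam-sand pots ahead of emergence, or onto emerged plants 2-10 cm tall. After a 10-day greenhouse period, each species is scored visually for injury against untreated controls.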

[6] = system: blackgrass (Alopecurus myosuroides); test: as above
How it was run: as §2

[7] = system: horseweed (Erigeron canadensis); test: as above
How it was run: as §2

[8] = system: barnyardgrass (Echinochloa crus-galli); test: as above
How it was run: as §2

[9] = system: ryegrass, Italian (italian ryegrass, Lolium multiflorum); test: as above
How it was run: as §2

[10] = system: palmer (palmer amaranth, palmer pigweed, Amaranthus palmeri); test: as above
How it was run: as §2

[11] = system: ragweed (common ragweed, Ambrosia artemisiifolia); test: as above
How it was run: as §2

[12] = system: soybean (Glycine max); test: as above
How it was run: as §2

[13] = system: wheat (Triticum aestivum); test: as above
How it was run: as §2

[14] = system: oat, wild (wild oat, Avena fatua); test: as above
How it was run: as §2

[15] = system: kochia (Bassia scoparia); test: as above
How it was run: as §2

[16] = system: green foxtail (Setaria viridis); test: as above
How it was run: as §2

[17] = system: corn (Zea mays); test: Test A preemergence soil spray, visual injury rating 0-100; conditions: 10 days
How it was run: as §2

[18] = system: blackgrass (Alopecurus myosuroides); test: as above; conditions: 10 days
How it was run: as §2

[19] = system: barnyardgrass (Echinochloa crus-galli); test: as above; conditions: 10 days
How it was run: as §2

[20] = system: ryegrass, Italian (italian ryegrass, Lolium multiflorum); test: as above; conditions: 10 days
How it was run: as §2

[21] = system: palmer (palmer amaranth, palmer pigweed, Amaranthus palmeri); test: as above; conditions: 10 days
How it was run: as §2

[22] = system: ragweed (common ragweed, Ambrosia artemisiifolia); test: as above; conditions: 10 days
How it was run: as §2

[23] = system: soybean (Glycine max); test: as above; conditions: 10 days
How it was run: as §2

[24] = system: wheat (Triticum aestivum); test: as above; conditions: 10 days
How it was run: as §2

[25] = system: oat, wild (wild oat, Avena fatua); test: as above; conditions: 10 days
How it was run: as §2

[26] = system: kochia (Bassia scoparia); test: as above; conditions: 10 days
How it was run: as §2

[27] = system: green foxtail (Setaria viridis); test: as above; conditions: 10 days
How it was run: as §2

[28] = 62 g ai/ha, postemergence, 10 days, 0 = no effect, 100 = complete control
[29] = Postemergence, 16 g ai/ha, greenhouse 10 days, 0 no effect, 100 complete control
[30] = 62 g ai/ha, 0 = no effect, 100 = complete control

With `COC(=O)C1CC(NC(=O)C2(C)CN(c3cc(F)cc(Cl)c3)C(=O)O2)C1` (centres unmarked) [Compound 145] the “Plant response rating, Rice (0 to 100 scale, 0 is no effect and 100 is complete control)” value [1] was 40, the “Plant response rating, Ducksalad (0 to 100 scale, 0 is no effect and 100 is complete control)” value [2] was 60 and the “Plant response rating, Barnyardgrass (0 to 100 scale, 0 is no effect and 100 is complete control)” value [3] was 60. For the same compound, the “Plant response rating, Sedge, Umbrella (0 to 100 scale, 0 is no effect and 100 is complete control)” value [4] was 50, the “Corn plant response rating (0-100)” value [5, 28] was 100 and the “Corn plant response rating (0 to 100 scale)” value [5, 29] was 100. The “Blackgrass plant response rating (0-100)” value [6, 28] was 100, the “Blackgrass plant response rating (0 to 100 scale)” value [6, 29] was 90 and the “Horseweed plant response rating (0-100)” value [7, 28] was 30. The “Horseweed plant response rating (0 to 100 scale)” value [7, 29] was 30, the “Barnyardgrass plant response rating (0-100)” value [8, 28] was 100 and the “Barnyardgrass plant response rating (0 to 100 scale)” value [8, 29] was 100. For the same compound, the “Ryegrass, Italian plant response rating (0-100)” value [9, 28] was 90, the “Ryegrass, Italian plant response rating (0 to 100 scale)” value [9, 29] was 70 and the “Pigweed, Palmer plant response rating (0-100)” value [10, 28] was 70. For the same compound, the “Pigweed, Palmer plant response rating (0 to 100 scale)” value [10, 29] was 10, the “Ragweed plant response rating (0-100)” value [11, 28] was 20 and the “Ragweed plant response rating (0 to 100 scale)” value [11, 29] was 0. For the same compound, the “Soybean plant response rating (0-100)” value [12, 28] was 80, the “Soybean plant response rating (0 to 100 scale)” value [12, 29] was 50 and the “Wheat plant response rating (0-100)” value [13, 28] was 90. The “Wheat plant response rating (0 to 100 scale)” value [13, 29] was 90, the “Oat, Wild plant response rating (0-100)” value [14, 28] was 90 and the “Oat, Wild plant response rating (0 to 100 scale)” value [14, 29] was 90. For the same compound, the “Kochia plant response rating (0-100)” value [15, 28] was 90, the “Kochia plant response rating (0 to 100 scale)” value [15, 29] was 60 and the “Foxtail, Green plant response rating (0-100)” value [16, 28] was 90. For the same compound, the “Foxtail, Green plant response rating (0 to 100 scale)” value [16, 29] was 90, the “Corn plant response rating” value ([17]; 16 g ai/ha, 0 to 100 scale) was 10 and the “Corn plant response rating (0-100)” value [17, 30] was 80. For the same compound, the “Blackgrass plant response rating” value ([18]; 16 g ai/ha, 0 to 100 scale) was 0, the “Blackgrass plant response rating (0-100)” value [18, 30] was 80 and the “Barnyardgrass plant response rating” value ([19]; 16 g ai/ha, 0 to 100 scale) was 20. The “Barnyardgrass plant response rating (0-100)” value [19, 30] was 80, the “Ryegrass, Italian plant response rating” value ([20]; 16 g ai/ha, 0 to 100 scale) was 30 and the “Ryegrass, Italian plant response rating (0-100)” value [20, 30] was 100. For the same compound, the “Pigweed, Palmer plant response rating” value ([21]; 16 g ai/ha, 0 to 100 scale) was 0, the “Pigweed, Palmer plant response rating (0-100)” value [21, 30] was 0 and the “Ragweed plant response rating” value ([22]; 16 g ai/ha, 0 to 100 scale) was 0. The “Ragweed plant response rating (0-100)” value [22, 30] was 0, the “Soybean plant response rating” value ([23]; 16 g ai/ha, 0 to 100 scale) was 0 and the “Soybean plant response rating (0-100)” value [23, 30] was 50. For the same compound, the “Wheat plant response rating” value ([24]; 16 g ai/ha, 0 to 100 scale) was 80, the “Wheat plant response rating (0-100)” value [24, 30] was 90 and the “Oat, Wild plant response rating” value ([25]; 16 g ai/ha, 0 to 100 scale) was 20. For the same compound, the “Oat, Wild plant response rating (0-100)” value [25, 30] was 80, the “Kochia plant response rating” value ([26]; 16 g ai/ha, 0 to 100 scale) was 0 and the “Kochia plant response rating (0-100)” value [26, 30] was 0. For the same compound, the “Foxtail, Green plant response rating” value ([27]; 16 g ai/ha, 0 to 100 scale) was 10 and the “Foxtail, Green plant response rating (0-100)” value [27, 30] was 90.
